Data set [1] concerns the target T1, Choline Kinase α (CKα) (Homo sapiens, UniProt P35790).
T1 construct: GST; made in house; host or cells: E. coli BL21(DE3)
The data set is described as follows: Inhibition of Choline Kinase α, kinase activity assay. Type of data set: biochemical. Conditions: recombinant CKα expressed in E. coli. On the procedure: CKα was prepared by expression in E. coli (Bl21(DE3)) and purified by GST column and column chromatography. […] The recombinant protein was pure and active as determined by the results of a kinase activity assay.

The subject of data set [2] is Calu-6. The data set can be described thus: Inhibition of cancer cell proliferation, Alamar Blue assay (Calu-6). The format is cell-based. Conditions: Homo sapiens. The procedure:
(§1) The ability of the compounds described herein to kill or inhibit the proliferation of cancer cells was measured using the Alamar Blue assay using a 72 hours exposure. Results for different cancer cell lines are shown in, the Table 2 below (hematopoietic cell lines U937 and K562; MDA-MB-231 a breast cancer cell line; and NCI-H82 and Calu-6, two lung cancer cell lines): […]
Background: Resazurin is reduced to fluorescent resorufin, in cell work by metabolically active cells.

A short description of data set [3]: Microsomal stability in human liver microsomes. The format is in vitro ADME. The source says:
Microsomal stability in vitro in different biologic media and species is ascertained when screening compounds to evaluate the rate at which a compound undergoes metabolism.
Background: Microsomes from liver hold many membrane-bound enzymes, among them those of drug oxidation.

A short description of data set [4]: Pharmacokinetics in Balbc mice. The format is in vivo. Conditions: Balbc male mice. The procedure: The pharmacokinetic parameters for several compounds listed above were determined in mice following IV (intravenous) or IP (intraperitoneal) administration. Briefly, six Balbc male mice 7 to 8 weeks old were used for each study. A dose of 5 mg/kg or 10 mg/kg was administered using a 5% DMSO/90% Captisol (20% in water) solution for ACT-CK-050 or FFF for ACT-CK-154. Blood samples were collected at different intervals. Plasma samples were extracted and analyzed using an LC-MS/MS method. Results are represented in FIGS. 1 and 2.

The test system of data set [5] is U937. The data set is described as follows: Inhibition of cancer cell proliferation, Alamar Blue assay (U937). Conditions: Homo sapiens, U-937. Type of data set: cell-based. On the procedure:
as §1

The test system of data set [6] is MDA-MB-231. The data set can be described thus: Inhibition of cancer cell proliferation, Alamar Blue assay (MDA-MB-231). The format is cell-based. As to conditions: Homo sapiens. The procedure: as §1
Data set [7] deals with NCI-H82. The data set is described as follows: Inhibition of cancer cell proliferation, Alamar Blue assay (NCI-H82). The format is cell-based. As to conditions: Homo sapiens. On the procedure: as §1
Data set [8] has as its system K562. The data set is described as follows: Inhibition of cancer cell proliferation, Alamar Blue assay (K562). The format is cell-based. Conditions: Homo sapiens. On the procedure: as §1
Data set [9] has as its system HCT-116. The data set is described as follows: Inhibition of cell proliferation (HCT-116). The format is cell-based. Conditions: Homo sapiens, Table 2B, Colon, average, read-out: IC50 Aver, HCT-116.
In data set [10] the test system is HT-29. The data set is described as follows: Inhibition of cell proliferation (HT-29). As to conditions: Homo sapiens, Table 2B, Colon, average, read-out: IC50 Aver, HT-29. Type of data set: cell-based.
Data set [11] concerns Colo-205. The data set can be described thus: Inhibition of cell proliferation (Colo-205). As to conditions: Homo sapiens, Table 2B, Colorectal, average, read-out: IC50 Aver, Colo-205. Type of data set: cell-based.
In data set [12] the test system is PC3. The data set can be described thus: Inhibition of cell proliferation (PC3). The format is cell-based. Conditions: Homo sapiens, PC-3; Table 2B; Prostate; average; read-out: IC50 Aver, PC3.
For data set [13], the system named is H209. The data set can be described thus: Inhibition of cell proliferation (H209). Conditions: Homo sapiens, NCI-H209; Table 2B; Lung; average; read-out: IC50 Aver, H209. Type of data set: cell-based.
Data set [14] concerns Hela. The data set is described as follows: Inhibition of cell proliferation (Hela). Type of data set: cell-based. As to conditions: Homo sapiens, Table 2B, Cervical, average, read-out: IC50 Aver, Hela.
Data set [15] concerns NCI-H2122. The data set is described as follows: Inhibition of cell proliferation (NCI-H2122). The format is cell-based. As to conditions: Homo sapiens, Table 2B, Lung, average, read-out: IC50 Aver, NCI-H2122.
The test system of data set [16] is Jurkat. The data set can be described thus: Inhibition of cell proliferation (Jurkat). The format is cell-based. Conditions: Homo sapiens, Table 2B, Leukemia, average, read-out: IC50 Aver, Jurkat.
The test system of data set [17] is Caco2 cells. The data set can be described thus: Permeability in Caco2 cells. Type of data set: in vitro ADME. As to conditions: Caco2. The source says:
(§2) The determination of the permeability in Caco2 cells is widely used in screening compounds to assess intestinal drug transport and predict absorption rates.
For orientation: Caco-2 monolayers are a common model of the intestinal barrier.

Data set [18] in a line: Permeability in Caco2 cells. The format is in vitro ADME. Conditions: human, Caco-2, Caco2 cells.
Text: as §2

Data set [19] deals with Hep G2. The data set can be described thus: Inhibition of cell proliferation (Hep G2). Type of data set: cell-based. As to conditions: Homo sapiens, HepG2; Table 2B; Liver; average; read-out: IC50 Aver, Hep G2.
In data set [20] the test system is A431. The data set can be described thus: Inhibition of cell proliferation (A431). Conditions: Homo sapiens, A-431; Table 2B; epidermi; average; read-out: IC50 Aver, A431. Type of data set: cell-based.
Data set [21] concerns DU145. The data set can be described thus: Inhibition of cell proliferation (DU145). The format is cell-based. Conditions: Homo sapiens, DU-145; Table 2B; Prostate; average; read-out: IC50 Aver, DU145.
Data set [22] deals with MKN-45. The data set is described as follows: Inhibition of cell proliferation (MKN-45). The format is cell-based. As to conditions: Homo sapiens, Table 2B, Gastric, average, read-out: IC50 Aver, MKN-45.
The mark [23] stands for this setting: Table 2A, Alamar Blue, 72 hours exposure, read-out: IC50s Calu-6.
The mark [24] stands for this setting: Table 2A, Alamar Blue, 72 hours exposure, read-out: IC50s U937.
Setting [25] is: Table 2A, Alamar Blue, 72 hours exposure, read-out: IC50s MDA-MB231.
Setting [26] is: Table 2A, Alamar Blue, 72 hours exposure, read-out: IC50s NCI-H82.
Where [27] appears, read: Table 2A, Alamar Blue, 72 hours exposure, read-out: IC50s K562.
Setting [28] is: IV or IP, 5 mg/kg or 10 mg/kg, 5% DMSO/90% Captisol solution.
[29] abbreviates: comparison of A-B and B-A values.

Like-named read-outs stand apart in the source and are kept apart here.

A word on the Cmax: it is the highest concentration seen after dosing. Broadly, the Vd is the apparent volume that relates the amount in the body to the concentration in plasma or blood. In general, Papp A→B refers to how fast a substance crosses the layer from the apical side. The Papp B→A is the apparent permeability from the basolateral to the apical side of a cell layer.

T1 sequence (P35790 whole entry): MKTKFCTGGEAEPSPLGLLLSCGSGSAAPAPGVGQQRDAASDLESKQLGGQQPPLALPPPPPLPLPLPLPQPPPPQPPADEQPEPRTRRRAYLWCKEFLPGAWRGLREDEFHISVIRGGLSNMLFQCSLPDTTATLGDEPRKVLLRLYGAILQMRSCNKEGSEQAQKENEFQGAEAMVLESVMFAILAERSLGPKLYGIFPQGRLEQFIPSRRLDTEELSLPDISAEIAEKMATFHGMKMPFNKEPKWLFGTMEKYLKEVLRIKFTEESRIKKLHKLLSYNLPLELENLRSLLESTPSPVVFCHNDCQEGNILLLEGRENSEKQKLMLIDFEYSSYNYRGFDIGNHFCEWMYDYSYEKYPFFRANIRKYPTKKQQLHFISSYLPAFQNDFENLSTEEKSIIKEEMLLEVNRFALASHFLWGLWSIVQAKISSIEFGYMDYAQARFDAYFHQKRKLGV

In the case of `CCOc1ccc(-c2nnc(SCC(=O)NC3CC(C)(C)NC(C)(C)C3)[nH]2)cc1` [ACT-CK-170, 2-[5-(4-Ethoxy-phenyl)-4H-[1,2,4]triazol-3-ylsulfanyl]-N-(2,2,6,6-tetramethyl-piperidin-4-yl)-acetamide], the IC50 in data set [1] was over 100000 nM.
With `CCOc1ccc(-c2nnc(SCC(=O)Nc3cc(OC)cc(OC)c3)[nH]2)cc1` [ACT-CK-109, N-(3,5-Dimethoxy-phenyl)-2-[5-(4-ethoxy-phenyl)-4H-[1,2,4]triazol-3-ylsulfanyl]-acetamide], the IC50 in [1] worked out at 18000 nM.
Consider `CCOc1ccc(-c2nnc(SCC(=O)Nc3cc(C)cc(C)c3)[nH]2)cc1F` [ACT-CK-154, N-(3,5-Dimethyl-phenyl)-2-[5-(4-ethoxy-3-fluoro-phenyl)-4H-[1,2,4]triazol-3-ylsulfanyl]acetamide], for which the IC50 in data set [2] (setting [23]) came to 30 nM; in data set [5] (setting [24]), 20 nM; in [6] (setting [25]) it was 2600 nM; in [7] (setting [26]) it was 160 nM; in data set [8] (setting [27]) it was 800 nM. For the same compound, the “% Metabolized (mean)” value in [3] is 99%. Besides, in [4] (IV, 5 mg/kg), the Cmax came out at 3639 ng/mL. Besides, the T1/2b in data set [4] (IV, 5 mg/kg) was determined as 9 min. The same compound had a volume of distribution (Vd) in data set [4] (IV, 5 mg/kg) of 1.66 L/kg.
In the case of `CCOc1ccc(-c2nnc(SCC(=O)Nc3cc(C)cc(C)c3)[nH]2)cc1` [ACT-CK-050, N-(3,5-Dimethyl-phenyl)-2-[5-(4-ethoxy-phenyl)-4H-[1,2,4]triazol-3-ylsulfanyl]-acetamide], the IC50 in [2] (setting [23]) came to 60 nM; in [2] (Table 2B, Lung, average, read-out: IC50 Aver, Calu-6), 57 nM; in data set [9], 523 nM; in [10], 89700 nM; in data set [5] (setting [24]), 60 nM; in [5] (Table 2B, lymphoma, average, read-out: IC50 Aver, U937) it was 63 nM. In addition, the IC50 was 18500 nM in data set [6] (setting [25]); 18500 nM in data set [6] (Table 2B, Breast, average, read-out: IC50 Aver, MDA-MB-231); 20000 nM in [1]; 240 nM in data set [11]; 240 nM in [12]; 367 nM in data set [13]. Besides, the IC50 in [7] (setting [26]) was 90 nM; in [7] (Table 2B, Lung, average, read-out: IC50 Aver, NCI-H82), 96 nM; in [14], 22 nM; in data set [15], 173 nM; in [16], 10400 nM; in [8] (setting [27]), 40 nM. Also, the IC50 in [8] (Table 2B, Leukemia, average, read-out: IC50 Aver, K562) is 43 nM; in data set [19], 163 nM; in data set [20] it was 117 nM; in data set [21] it was 597 nM; in [22], 47 nM. Moreover, the “% Metabolized (mean)” value in data set [3] came to 99%. Besides, the “Clearance (in words)” value in data set [4] (setting [28]) is recorded as “cleared too quickly”. Besides, the “Plasma levels (in words)” value in [4] (setting [28]) is listed as “too low”. In addition, the “Pgp substrate (in words)” value in data set [17] (setting [29]) is listed as “not a Pgp substrate”. In addition, in data set [17] (setting [29]), the “active efflux (in words)” value is reported as “not actively effluxed out the cells”. The “permeability properties (in words)” value in [17] (high permeability determined as Papp>10×10^−6 cm/s) is “high permeability”. In [18] (apical to basal), this compound came in with a Papp A→B of 46.1 ×10⁻⁶ cm/s. The compound further showed a Papp B→A in data set [18] (basal to apical) of 16.2 ×10⁻⁶ cm/s.
Consider `CCOc1ccc(-c2nnc(SCC(=O)N(C)c3cc(C)cc(C)c3)[nH]2)cc1` [ACT-CK-153, N-(3,5-Dimethyl-phenyl)-2-[5-(4-ethoxy-phenyl)-4H-[1,2,4]triazol-3-ylsulfanyl]-N-methyl-acetamide], for which the “% Metabolized (mean)” value in data set [3] stood at 99%. The IC50 in [1] was 30000 nM.
On to `CCOc1ccc(-c2nnc(SCC(=O)Nc3cccc(OC)c3)[nH]2)cc1` [ACT-CK-157, 2-[5-(4-Ethoxy-phenyl)-4H-[1,2,4]triazol-3-ylsulfanyl]-N-(3-methoxy-phenyl)-acetamide], for which the IC50 in data set [1] was 50000 nM.

Source of the values: patent US20110257211A1, “Small-Molecule Choline Kinase Inhibitors as Anti-Cancer Therapeutics” (ADVANCED CANCER THERAPEUTICS, LLC, priority 2010, published 2011).
